Converted amounts (≈) assume the structure as drawn.
Legend:
Type in all cases: cell-based
[1] = tested on: MRSA T998608; assay: Broth microdilution (BMD) MIC; details: Staphylococcus aureus, read-out: Oritavancin BMD MIC
Text: (§1) To date, only the broth microdilution (BMD) minimal inhibitory concentration (MIC) test is a reference method accepted by the Clinical Laboratory Standards Institute (CLSI) for use in determining the susceptibility of a bacterial isolate to oritavancin (Methods for Dilution Antimicrobial Susceptibility Tests for Bacteria That Grow Aerobically; Approved Standard, CLSI document M7-A8, 8th ed. Clinical and Laboratory Standards Institute, Wayne, Pa. 2009; Performance Standards for Antimicrobial Susceptibility Testing; Eighteenth Informational Supplement, CLSI document M100-S18, 7th ed. Clinical and Laboratory Standards Institute, Wayne, Pa. 2008).

[2] = tested on: VISA NRS402; assay: Broth microdilution (BMD) MIC; details: Staphylococcus aureus, read-out: Oritavancin BMD MIC
Text: as §1

[3] = tested on: MRSA V288615; assay: Broth microdilution (BMD) MIC; details: Staphylococcus aureus, read-out: Oritavancin BMD MIC
Text: as §1

[4] = tested on: MRSA NRS121; assay: Broth microdilution (BMD) MIC; details: Staphylococcus aureus, read-out: Oritavancin BMD MIC
Text: as §1

[5] = tested on: MSSA T759545; assay: Broth microdilution (BMD) MIC; details: Staphylococcus aureus, read-out: Oritavancin BMD MIC
Text: as §1

[6] = tested on: MRSA U260847; assay: Broth microdilution (BMD) MIC; details: Staphylococcus aureus, read-out: Oritavancin BMD MIC
Text: as §1

[7] = tested on: MRSA Q141067; assay: Broth microdilution (BMD) MIC; details: Staphylococcus aureus, read-out: Oritavancin BMD MIC
Text: as §1

[8] = tested on: MRSA NRS123-ORI^RS; assay: Broth microdilution (BMD) MIC; details: Staphylococcus aureus; MRSA NRS123-ORI^RS (oritavancin reduced-susceptibility isolate)
Text: as §1

[9] = tested on: MSSA S815246; assay: Broth microdilution (BMD) MIC; details: Staphylococcus aureus, read-out: Oritavancin BMD MIC
Text: as §1

[10] = tested on: VISA Mu50 (ATCC 700699); assay: Disk diffusion assay (zone of inhibition); details: Staphylococcus aureus, Oxoid disks, 20 μl of 18 mg/ml oritavancin in 5% P80, stored 30 days at room temperature, prediffusion 6 hours at 4° C., read-out: Inhibition zone diameter

SMILES: CN[C@H](CC(C)C)C(=O)N[C@H]1C(=O)N[C@@H](CC(N)=O)C(=O)N[C@H]2C(=O)N[C@H]3C(=O)N[C@H](C(=O)N[C@H](C(=O)O)c4cc(O)cc(O)c4-c4cc3ccc4O)[C@H](O[C@H]3C[C@](C)(N)[C@@H](O)[C@H](C)O3)c3ccc(c(Cl)c3)Oc3cc2cc(c3O[C@@H]2O[C@H](CO)[C@@H](O)[C@H](O)[C@H]2O[C@H]2C[C@](C)(NCc3ccc(-c4ccc(Cl)cc4)cc3)[C@@H](O)[C@H](C)O2)Oc2ccc(cc2Cl)[C@H]1O [oritavancin, N-(4-(4-chlorophenyl)benzyl)A82846B]
- MIC [1]: 0.03 µg/mL (≈ 0.0167 µM)
- MIC [2]: 1 µg/mL (≈ 0.558 µM)
- MIC [3]: 0.03 µg/mL (≈ 0.0167 µM)
- MIC [4]: 0.06 µg/mL (≈ 0.0335 µM)
- MIC [5]: 0.015 µg/mL (≈ 0.00837 µM)
- MIC [6]: 0.06 µg/mL (≈ 0.0335 µM)
- MIC [7]: 0.015 µg/mL (≈ 0.00837 µM)
- MIC [8]: 0.25 µg/mL (≈ 0.139 µM)
- MIC [9]: 0.03 µg/mL (≈ 0.0167 µM)
- zone of inhibition at 18000 µg/mL [10]: 13 mm

Reference: patent US8815535B2, “Disk diffusion assay for oritavancin” (The Medicines Company, priority 2011, dated 2014)
